Values joined by “and” are separate entries in the source; they are usually repeats but may differ in a detail not shown here. Identical values can stand only once. Active and inactive are the calls of the source.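 Rule for the calls: active = compounds giving half or more protection of infected cells from virus-caused growth loss, again on retest; inactive = the rest.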 Where a SMILES comes first, the peptide text is derived from it. Side-chain parts run from the residue outwards. The star is where a group is joined. Cbz = O=C(OCc1ccccc1)*; Boc = CC(C)(C)OC(=O)*

The term EC50 denotes the concentration that produces a half-maximal response. The IC50 is the midpoint of a concentration-inhibition curve. Low readings indicate greater potency, high ones weaker potency.

This assay relates to CEM cells HIV-1 protection, formazan growth assay. In words: NCI AIDS Antiviral Assay. Conditions: for IC50: measured here: growth of uninfected CEM cells. Put shortly:
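Protection of CEM cells against HIV-1 measured as cell growth via soluble formazan read-out, with five concentrations tested on both infected and uninfected cells; failure to protect may reflect toxicity.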

For the compound `O=C1C(=O)N(C(=O)c2ccc(Cl)c(Cl)c2)c2ccc(Cl)cc21`, the result was inactive.
In the case of `COc1ccc(-n2c(N)c(C#N)[nH]c2=O)cc1`, the EC50 is more than 200 µM and the IC50 is more than 200 µM.
As to `C#CCOCn1cnc2c(=O)[nH]cnc21`, the EC50 is more than 331 µM and the IC50 is more than 331 µM.
As to `O=C(O)c1cc2cccc(S(=O)(=O)O)c2cc1O`, the EC50 was more than 200 µM and the IC50 is more than 200 µM.
As to `Cc1ccc(NC(=O)CCC(CC(=O)C(C)(C)C)=NNC(=O)C(=O)NN)cc1C`, the EC50 is more than 3.63 µM and the 50% inhibitory concentration (IC50) is 2.57 µM.
For `COC(=O)[C@@H]1[C@H]2[C@H](OC(=O)c3ccccc3)CCN2C(=O)[C@H]1O`, in that order: more than 200 µM and 75.9 µM.
For `COC(=O)C1CC(C(=O)OC)c2nc3cc([N+](=O)[O-])ccc3nc21` (centres undefined), in that order: more than 151 µM and 61.7 µM.
For `O=c1oc2ccccc2c(O)c1C(c1ccc(Cl)cc1)c1c(O)c2ccccc2oc1=O`, in that order: more than 200 µM and 26.3 µM.
For `CNC(=O)/C(C#N)=C(\N)N1CCCC1`, the EC50 is more than 200 µM and the IC50 is more than 200 µM.
`O=C(c1ccc(Cl)cc1)c1cc2c([nH]c1=O)CCCCC2`: the result was inactive.
As to `CCC(C)(O)c1cn(-c2cccc(S(=O)(=O)O)c2)nn1` (centres undefined), the EC50 is more than 417 µM and the IC50 was more than 417 µM.
As for `CCc1n[nH]c(=O)n1-c1ccc2ccccc2c1`, the EC50 is more than 100 µM and the IC50 was more than 100 µM.
As for `Cc1ccc(C=NC23CC4CC(CC(C4)C2)C3)cc1`, the EC50 is more than 257 µM and the IC50 is more than 257 µM.
As for `C#CCC(C#C)N(CCc1ccsc1)Cc1ccccc1` (centres undefined), the EC50 was more than 200 µM and the IC50 came out at 67.6 µM.
`O=c1oc2ccccc2n1Cc1ccc(Cl)cc1`: the EC50 is more than 200 µM and the IC50 amounted to 79.4 µM.
Consider `NC(N)=NCCN1CCCCCCC1`, for which the EC50 is more than 200 µM and the IC50 was more than 200 µM.
On to `O=C1c2ccccc2C2NCCCN12` (centres undefined), for which the outcome was inactive.
In the case of `Nc1ccccc1Sc1ccc(Cl)cc1`, the outcome was inactive.
As to `COc1ccc(C2C3=CONC3CC3CCCCC32)cc1` (centres undefined), the EC50 is more than 200 µM and the IC50 was 77.6 µM.
The corresponding values for `COc1cccc(NCC(=O)Nn2c(-c3ccccc3)nc3ccccc3c2=O)c1` are more than 200 µM and 112 µM.
Take `O=C(O)c1ccc([C@@H]2C(=O)N(O)[C@@H]3C=CC[C@@H]32)cc1`: the EC50 is more than 347 µM and the IC50 is more than 347 µM.
For the compound `O=[N+]([O-])c1sc2ccc(Cl)cc2c1Nc1ccc(Cl)cc1`, the EC50 was more than 200 µM and the IC50 was more than 200 µM.
For `CCOC(=O)CCC(NC(=O)c1ccc(NC(OC)c2nc3cc(C(F)(F)F)ccc3nc2-c2ccccc2)cc1)C(=O)OCC` (centres undefined), the EC50 was more than 8.13 µM and the IC50 is more than 8.13 µM.
Turning to `Cc1ccc(NC(=O)CCc2nc(N)nc(N)c2-c2ccccc2)cc1C`, the EC50 was more than 692 µM and the IC50 was more than 692 µM.
In the case of `COc1ccc(-c2csc(=[N+]3CCCCC3)s2)cc1`, the result was inactive.
For the compound `CC(=O)NNc1nc(C)c(C(=O)/C=C/c2ccc(N(C)C)cc2)s1`, the EC50 is more than 55 µM and the IC50 was more than 55 µM.
As for `Cc1c2nc3ccccc3sc-2cc(=O)c1C`, the EC50 was more than 21.4 µM and the IC50 is more than 21.4 µM.
On to `Nc1nc(N)nc(-c2cnc3ccccc3c2)n1`, for which the EC50 is more than 200 µM and the IC50 is more than 200 µM.
`O=C1OC2C(O)C3CC1C2O3` (centres undefined): the EC50 was more than 1580 µM and the IC50 is more than 1580 µM.
Consider `CCCc1cc(=O)oc2c3c(c4c(c12)OC(C)(C)CC4)O[C@H](C)C(C)C3=O` (some centres undefined), for which the EC50 is 12.3 µM and the IC50 was found to be 186 µM.
Consider `Fc1ccc(-c2sc(-c3ccsc3)cc2Cc2ccsc2)cc1`, for which the outcome was inactive.
With `Clc1ccc2c(c1)Sc1ccc(Cl)cc1S2`, the EC50 is more than 200 µM and the IC50 was more than 200 µM.
As to `CCCCCCC(O)CCCC(O)C1CCC(C2CCC(C(O)CCCCCCCCCCCCC3=CC(C)OC3=O)O2)O1` (centres undefined), the result was inactive.
With `O=C(O)C(CP(=O)(O)O)=C(Cl)Cl`, the EC50 is more than 741 µM and the IC50 is more than 741 µM.
Take `Sc1ccc(Nc2c3ccccc3nc3ccccc23)cc1`: the EC50 is more than 200 µM and the IC50 was 14.5 µM.
As to `CCC(=O)NC(Nc1cccc(F)c1)(C(F)(F)F)C(F)(F)F`, the EC50 is more than 200 µM and the IC50 was more than 200 µM.
As to `Cn1ccnc1Oc1ccc(Cl)cc1`, the EC50 is more than 200 µM and the IC50 stood at 9.77 µM.
For `O=C(c1ccco1)N(C(=S)OCc1ccccn1)c1ccccc1`, in that order: more than 200 µM and 105 µM.
`CSC1=Nc2ccccc2-c2nc3ccccc3cc2C1`: the result was inactive.
In the case of `Cc1cccc(NC(=O)CSc2nnc(Cc3ccccc3)o2)c1`, the EC50 was more than 537 µM and the IC50 is more than 537 µM.
With `COc1ccccc1C(C1=C(O)COC1=O)c1cc2c(cc1OC(C)=O)OCO2` (centres undefined), the EC50 is more than 200 µM and the IC50 was more than 200 µM.
As to `CCCCCCCCCC(=O)OC1CN2CC[C@H](O)C2C(O)[C@@H]1O` (some centres undefined), the result was inactive.
As to `O=C(CC(=O)n1nc(-c2ccccc2)c(N=Nc2ccc(Cl)cc2)c1-c1ccccc1)Nc1ccc(Cl)cc1`, the EC50 is more than 18.2 µM and the IC50 is more than 18.2 µM.
Take `O=C(O)CCCCCCCCCCCBr`: the EC50 was 37.2 µM and the IC50 stood at 162 µM.
The corresponding values for `Cc1cc2c(=O)cc(-c3ccccc3Cl)oc2c(C#N)c1C` are more than 100 µM and more than 100 µM.
The corresponding values for `COc1ccc(CC2NC(=O)C3CCCN3C2=O)cc1` (centres undefined) are more than 200 µM and more than 200 µM.
For `COc1cc(C(=O)C/C(CCC(=O)Nc2ccc(Cl)cc2Cl)=N/Nc2nnc(C)n2N)ccc1O`, in that order: more than 50.1 µM and more than 50.1 µM.
Regarding `COc1cc2c(cc1OC)C13CC[N+]4(C)CC5CCOC6CCN2C1C6C5CC34` (centres undefined), the EC50 is more than 479 µM and the IC50 came out at 66.1 µM.
The corresponding values for `CC(=O)Nc1ccc(/C=C/C(=O)c2sc(C(N)=S)nc2C)cc1` are more than 75.9 µM and more than 75.9 µM.
For `COC(=O)CC(CNC(=O)OCc1ccccc1)OCc1ccc(OC)cc1` (centres undefined), the EC50 is more than 200 µM and the IC50 is more than 200 µM.
Regarding `c1ccc(C[P+](c2ccccc2)(c2ccccc2)c2ccc3ccccc3c2-c2c([P+](Cc3ccccc3)(c3ccccc3)c3ccccc3)ccc3ccccc23)cc1`, the EC50 is more than 257 µM; the IC50 was 0.389 µM and 2.51 µM.
Regarding `CC1(C)CCCCCC(C)(CCCO)C1=O` (centres undefined), the EC50 is more than 200 µM and the IC50 is more than 200 µM.
Regarding `COc1ccc(CC[N+](C)(C)C)cc1`, the EC50 is more than 200 µM and the IC50 was more than 200 µM.
In the case of `CC(C)(C)OC(=O)NC(CCCCNC(=O)CNC(=O)OCc1ccccc1)C(=O)NC(CCCCNC(=O)CNC(=O)OCc1ccccc1)C(=O)NC(CCCCNC(=O)CNC(=O)OCc1ccccc1)C(=O)NC(CCCCNC(=O)CNC(=O)OCc1ccccc1)C(=O)O` (centres undefined) (Boc-K([Gly-Cbz])K([Gly-Cbz])K([Gly-Cbz])K([Gly-Cbz])-OH; configuration not given here), the EC50 is 72.4 µM and the IC50 was more than 100 µM.
For `N=C(N)Oc1ccc(Cl)cc1`, in that order: more than 200 µM and 26.9 µM.
For `COc1cccc(/C=N/[N-]C(N)=O)c1[O-].[OH3+].[Pd+2]`, in that order: more than 21.9 µM and more than 21.9 µM.
For `O=[N+]([O-])c1ccc2cnn(CCO)c2c1`, in that order: more than 200 µM and more than 200 µM.
On to `NC(CCSS(=O)(=O)O)=NCC(c1ccccc1)c1ccccc1`, for which the EC50 was more than 123 µM and the IC50 was determined as 20 µM.
For `COc1ccc(-n2c(C)nc3ccc(NC4OCC(OC(C)=O)C(OC(C)=O)C4OC(C)=O)cc3c2=O)cc1` (centres undefined), in that order: more than 200 µM and 123 µM.
On to `CC1Cn2c(nnc2-c2ccccc2O)S1` (centres undefined), for which the outcome was inactive.
On to `O=C(CC(C(=O)c1cccs1)c1ccsc1)c1ccc(Cl)cc1` (centres undefined), for which the EC50 is more than 200 µM and the IC50 was determined as 52.5 µM.
For `CCC1S(=O)(=O)OCCOS1(=O)=O`, in that order: more than 1070 µM and 64.6 µM.
For `COC1/C=C/OC2(C)Oc3c(C)c(O)c4c(O)c(c(C=NN5CCCCCCCCCCCCCCC5)c(O)c4c3C2=O)NC(=O)/C(C)=C/C=C/C(C)C(O)C(C)C(O)C(C)C(OC(C)=O)C1C` (centres undefined), the EC50 was more than 200 µM and the IC50 is 3.98 µM.
For `Cc1cc(=O)c2c(O)cc3c(c2o1)CC=C(COC1OC(COC2OC(CO)C(O)C(O)C2O)C(O)C(O)C1O)CO3` (centres undefined), the EC50 was more than 417 µM and the half-inhibitory concentration (IC50) was more than 417 µM.
With `CN(C)CCCCC1c2ccccc2Sc2ccccc21`, the EC50 was more than 200 µM and the IC50 stood at 8.71 µM.
With `O=S1(=O)OCCOS(=O)(=O)C1C1c2ccccc2-c2ccccc21`, the EC50 was more than 200 µM and the IC50 turned out to be 30.9 µM.
The corresponding values for `Cc1ccc(C(=O)OC(C)C)cc1N=NN(C)C` are more than 55 µM and more than 55 µM.
Take `CC1CCC23COC(=O)C2C(O)CCC3C1(C)CC(O)c1ccoc1` (centres undefined): the EC50 was more than 145 µM and the IC50 is more than 145 µM.
As for `CC(C)C(=O)/C=C/c1ccc(Br)cc1`, the outcome was inactive.
On to `CC(NC(=O)OC(C)(C)C)C(=O)NC(Cc1ccccc1)C(=O)NCC(=O)O` (stereo not drawn) (Boc-Ala-Phe-Gly-OH; configuration not given here), for which the EC50 was more than 200 µM and the IC50 is more than 200 µM.
On to `N#Cc1c(-c2ccc([N+](=O)[O-])cc2)c(C#N)c(=O)n(NS(=O)(=O)c2ccccc2)c1O`, for which the EC50 is more than 200 µM and the IC50 is more than 200 µM.
With `COC(=O)C(Cc1ccccc1)C(=O)C(CC(=O)OC(C)(C)C)NC(=O)OC(C)(C)C` (centres undefined), the EC50 was more than 200 µM and the 50% inhibitory concentration (IC50) was more than 200 µM.
In the case of `C[N+]1(C)CCC(C#N)(c2ccccc2)CC1`, the EC50 was more than 724 µM.

(Values after PubChem BioAssay AID179 (DTP/NCI, 2004).)
